{"source": "ChEMBL document CHEMBL1201862", "about": "“PubChem BioAssay data set” (2004)", "key": {"[1]": {"molecular_target": "T1, Oxysterols receptor LXR-beta (Homo sapiens, UniProt P55055)", "T1 sequence (P55055 whole entry)": "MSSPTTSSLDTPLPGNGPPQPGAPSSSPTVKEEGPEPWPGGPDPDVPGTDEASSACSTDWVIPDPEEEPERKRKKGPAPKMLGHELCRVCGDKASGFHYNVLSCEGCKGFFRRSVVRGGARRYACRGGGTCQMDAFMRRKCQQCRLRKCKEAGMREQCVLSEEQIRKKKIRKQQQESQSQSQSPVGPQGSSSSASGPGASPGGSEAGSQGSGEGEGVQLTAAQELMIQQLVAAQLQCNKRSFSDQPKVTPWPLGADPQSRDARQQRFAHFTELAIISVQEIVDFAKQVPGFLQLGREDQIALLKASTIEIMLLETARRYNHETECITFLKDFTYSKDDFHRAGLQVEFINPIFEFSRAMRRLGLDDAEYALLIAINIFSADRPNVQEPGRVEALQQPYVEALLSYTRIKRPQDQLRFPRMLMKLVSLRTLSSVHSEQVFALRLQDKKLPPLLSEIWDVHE", "assay_type": "functional, cell-based"}, "[2]": {"molecular_target": "T1, Oxysterols receptor LXR-beta", "assay": "LXR agonists, Gal4 luciferase reporter, dose response, counter-screen for ssDAF-12 agonist project, cell-based, luminescence, HEK293, S. stercoralis campaign (AID 720737)", "assay_type": "functional", "settings": "read-out: IC50 (the source's name)"}, "[3]": {"assay": "Luminescence-based cell-based high throughput dose response assay to identify activators of the DAF-12 from the parasite S. stercoralis (ssDAF-12).", "assay_type": "functional"}, "[4]": {"molecular_target": "Transthyretin (Homo sapiens, UniProt P02766)", "assay": "Luminescence-based cell-based high throughput dose response assay to identify activators of Transthyretin (TTR) transcription.", "assay_type": "functional"}, "[5]": {"assay": "luciferase reporter signal suppression in cells – H4 neuroglioma cells, luminescence, dose response (AID 1990)", "assay_type": "functional, cell-based"}, "[6]": {"assay": "alpha-synuclein stem-loop luciferase translation blockers – H4 neuroglioma cells, luminescence, confirmation (AID 1988)", "assay_type": "functional, cell-based"}, "[7]": {"assay": "A549 cell cytotoxicity, dose response, cytotoxicity control, plate reader, cherry-pick, antagonist series (AID 743412)", "assay_type": "functional, cell-based"}, "[8]": {"assay": "toxicity toward HepG2 liver cells – cell-based, plate reader, cherry-pick, antagonist series, cytotoxicity control, dose response (AID 743416)", "assay_type": "functional"}, "[9]": {"assay": "cells", "assay_type": "functional, cell-based"}, "[10]": {"assay": "Luminescence Cell-Based Dose Response HTS to Identify Inhibitors of 5'UTR Stem-Loop Driven Prion Protein mRNA Translation in H4 Neuroglioblastoma Cells. [Related pubchem assays: 1827 (Project Summary), 1813 (Primary HTS)]", "assay_type": "functional"}, "[11]": {"assay": "viability loss in HEK293 cells – cell-based, plate reader, cherry-picked samples, cytotoxicity control, dose response (AID 743446)", "assay_type": "functional"}, "[12]": {"assay": "blockade of melanocortin 4 receptor signaling – cell-based, plate reader, cherry pick, counter-screen for LGR2 antagonist project, dose response (AID 743444);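 also: transfected HEK 293 cells stimulated with alpha-MSH peptide; potency of inhibitors of the alpha-MSH evoked signal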", "assay_type": "functional"}, "[13]": {"molecular_target": "T2, Heat shock factor protein 1 (Mus musculus, UniProt P38532)", "T2 sequence (P38532 whole entry)": "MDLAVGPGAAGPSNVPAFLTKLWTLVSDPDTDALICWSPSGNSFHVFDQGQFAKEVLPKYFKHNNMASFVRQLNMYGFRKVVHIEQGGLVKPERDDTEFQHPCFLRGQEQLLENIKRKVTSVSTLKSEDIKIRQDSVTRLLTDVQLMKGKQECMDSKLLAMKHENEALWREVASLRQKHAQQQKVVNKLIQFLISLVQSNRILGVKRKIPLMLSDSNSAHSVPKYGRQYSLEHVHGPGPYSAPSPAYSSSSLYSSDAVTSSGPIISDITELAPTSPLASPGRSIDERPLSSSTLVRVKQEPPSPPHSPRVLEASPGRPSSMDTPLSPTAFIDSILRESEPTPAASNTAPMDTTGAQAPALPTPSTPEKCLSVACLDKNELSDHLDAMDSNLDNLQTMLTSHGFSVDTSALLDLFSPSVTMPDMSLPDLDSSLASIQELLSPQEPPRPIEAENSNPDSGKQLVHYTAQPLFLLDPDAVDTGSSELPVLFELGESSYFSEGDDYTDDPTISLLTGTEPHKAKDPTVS", "assay": "decrease of HSF1-responsive luciferase luminescence – cell-based, NIH3T3, dose retest, confirmation (AID 2382);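 also: NIH3T3 fibroblasts with HSF1-driven luciferase reporter stressed by proteasome inhibitor MG132; luminescence from HSF1-driven luciferase expression after 8 hours of MG132 stress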", "assay_type": "functional"}, "[14]": {"assay": "blockers of bursicon-stimulated LGR2 cAMP reporter – cell-based, HEK293, CRE-luciferase reporter, cherry pick, set 2, dose response (AID 743343);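 also: transfected cells were stimulated with diluted bursicon conditioned medium after compound addition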", "assay_type": "functional"}, "[15]": {"molecular_target": "T3, Nuclear receptor subfamily 0 group B member 1 (Homo sapiens, UniProt P51843)", "T3 sequence (P51843 whole entry)": "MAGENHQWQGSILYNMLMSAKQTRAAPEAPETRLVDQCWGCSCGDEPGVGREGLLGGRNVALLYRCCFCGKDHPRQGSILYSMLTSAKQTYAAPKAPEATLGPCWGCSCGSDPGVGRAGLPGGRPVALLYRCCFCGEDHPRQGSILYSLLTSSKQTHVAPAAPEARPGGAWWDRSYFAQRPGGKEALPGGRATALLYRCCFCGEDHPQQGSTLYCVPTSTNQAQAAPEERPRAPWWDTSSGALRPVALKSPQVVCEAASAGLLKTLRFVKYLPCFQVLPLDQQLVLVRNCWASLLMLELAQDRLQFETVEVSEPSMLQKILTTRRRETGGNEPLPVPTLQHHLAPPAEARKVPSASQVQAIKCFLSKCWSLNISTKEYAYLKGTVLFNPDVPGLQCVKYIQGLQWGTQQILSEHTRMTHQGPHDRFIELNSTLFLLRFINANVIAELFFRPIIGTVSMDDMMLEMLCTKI", "assay_type": "functional, cell-based"}, "[16]": {"tested_on": "Vero", "assay": "mammalian cell viability reduction – secondary assay, cytotoxicity control for West Nile virus antiviral project, dose response (AID 1650)", "assay_type": "functional", "settings": "Chlorocebus sabaeus"}, "[17]": {"molecular_target": "Endoplasmic reticulum aminopeptidase 1 (Homo sapiens, UniProt Q9NZ08)", "sequence (Q9NZ08 whole entry)": "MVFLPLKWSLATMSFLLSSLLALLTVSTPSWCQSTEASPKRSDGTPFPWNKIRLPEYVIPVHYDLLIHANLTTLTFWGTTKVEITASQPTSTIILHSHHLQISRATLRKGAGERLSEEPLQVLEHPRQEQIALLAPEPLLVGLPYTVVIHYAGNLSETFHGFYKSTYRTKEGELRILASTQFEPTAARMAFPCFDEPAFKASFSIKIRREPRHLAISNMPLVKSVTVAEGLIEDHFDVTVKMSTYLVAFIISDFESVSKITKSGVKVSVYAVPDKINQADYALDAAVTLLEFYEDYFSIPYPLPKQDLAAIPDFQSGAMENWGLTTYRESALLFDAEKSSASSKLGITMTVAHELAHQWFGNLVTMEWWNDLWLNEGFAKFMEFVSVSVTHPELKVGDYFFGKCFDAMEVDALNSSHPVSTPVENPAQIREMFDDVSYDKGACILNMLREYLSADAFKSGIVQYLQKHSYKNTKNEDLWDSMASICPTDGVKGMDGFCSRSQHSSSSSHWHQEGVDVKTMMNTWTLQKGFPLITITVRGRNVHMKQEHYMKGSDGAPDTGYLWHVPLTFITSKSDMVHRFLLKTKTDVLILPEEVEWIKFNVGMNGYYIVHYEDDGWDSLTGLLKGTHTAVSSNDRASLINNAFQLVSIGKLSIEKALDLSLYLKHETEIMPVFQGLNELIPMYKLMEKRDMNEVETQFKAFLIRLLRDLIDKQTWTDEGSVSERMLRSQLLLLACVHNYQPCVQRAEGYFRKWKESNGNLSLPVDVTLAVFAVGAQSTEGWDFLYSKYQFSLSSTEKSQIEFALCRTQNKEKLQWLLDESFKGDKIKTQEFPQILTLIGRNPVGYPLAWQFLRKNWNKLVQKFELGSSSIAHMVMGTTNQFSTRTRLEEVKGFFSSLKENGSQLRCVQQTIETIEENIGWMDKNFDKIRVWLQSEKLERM", "assay": "inhibition of human ERAP1 enzyme activity – biochemical, cherry-pick, set 2, plate reader, dose response (AID 743314)"}, "[18]": {"molecular_target": "T2, Heat shock factor protein 1", "assay": "enhancement of HSF1-driven luciferase signal – cell-based, NIH3T3, luminescence, dose retest, confirmation (AID 435004);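 also: stress induced by proteasome inhibitor MG132 added 30 min after compound; actives raise luminescence as potentiators of the MG132 stress response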", "assay_type": "functional"}, "[19]": {"molecular_target": "Heat shock protein HSP 90-alpha (Homo sapiens, UniProt P07900)", "assay": "Luminescence-based dose response biochemical high throughput screening assay for inhibitors of the Heat Shock Protein 90 (HSP90). [Related pubchem assays: 1831 (Summary AID.), 1846 (Confirmation screen.), 1789 (Primary screen.)]"}, "[20]": {"assay": "Trypanosoma cruzi growth suppression in host cells – NIH3T3 host cells, beta-gal luminescence, confirmation (AID 2044);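 also: luminescent beta-galactosidase reporter signal from transgenic T. cruzi replicating inside host cells; inhibitors lower the luminescence signal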", "assay_type": "functional, cell-based"}, "[21]": {"assay": "DRD fibroblast viability loss – cell-based, non-viral oncogenic, luminescence, dose response (AID 1934)", "assay_type": "functional", "settings": "Homo sapiens"}, "[22]": {"assay": "reduced cellular PGC1a acetyl-lysine signal – cell-based, cherry-picked samples, dose response (AID 720514);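 also: potency may reflect raised or lowered acetylation signal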", "assay_type": "functional"}, "[23]": {"tested_on": "BJ", "assay": "BJ-TERT fibroblast viability loss – cell-based, RAS-independent, luminescence, dose response (AID 1933)", "assay_type": "functional", "settings": "Homo sapiens"}, "[24]": {"tested_on": "BJ", "assay": "cells", "assay_type": "functional, cell-based", "settings": "Homo sapiens"}, "[25]": {"assay": "NIH3T3 cell viability loss – ATP luminescence, mouse fibroblasts, counter-screen, dose response (AID 2010);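 also: cells exposed to compound for about 90 hours before reading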", "assay_type": "functional, cell-based"}, "[26]": {"molecular_target": "Estrogen receptor beta (Homo sapiens, UniProt Q92731)", "sequence (Q92731 whole entry)": "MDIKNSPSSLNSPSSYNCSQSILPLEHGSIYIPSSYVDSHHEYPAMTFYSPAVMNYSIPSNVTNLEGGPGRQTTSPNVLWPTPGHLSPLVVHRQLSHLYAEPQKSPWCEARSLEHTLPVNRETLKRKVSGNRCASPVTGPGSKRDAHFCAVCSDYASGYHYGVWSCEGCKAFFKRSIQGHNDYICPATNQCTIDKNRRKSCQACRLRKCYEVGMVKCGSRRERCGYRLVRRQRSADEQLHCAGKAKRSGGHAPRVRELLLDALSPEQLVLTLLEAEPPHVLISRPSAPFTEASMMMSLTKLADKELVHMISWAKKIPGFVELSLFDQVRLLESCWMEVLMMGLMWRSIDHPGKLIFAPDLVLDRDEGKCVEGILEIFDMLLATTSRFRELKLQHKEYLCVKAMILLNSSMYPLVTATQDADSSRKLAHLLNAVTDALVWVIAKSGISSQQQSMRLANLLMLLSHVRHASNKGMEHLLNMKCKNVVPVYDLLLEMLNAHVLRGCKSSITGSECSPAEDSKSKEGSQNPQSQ"}}, "note": "Calls of active or inactive are those of the source."}
{"smiles": "Clc1ccc(-c2cn3cc(Cl)ccc3n2)cc1", "values": [{"measurement": "EC50", "setting": "[1]", "value": "> 67.6 µM (inactive)"}, {"measurement": "EC50", "setting": "[2]", "value": "> 67.6 µM (inactive)"}, {"measurement": "IC50", "setting": "[3]", "value": "> 67.6 µM (inactive)"}]}
{"smiles": "Cn1cc(Br)c(C(=O)N2CCc3ccccc32)n1", "values": [{"measurement": "EC50", "setting": "[4]", "value": "> 167 µM (inactive)"}]}
{"smiles": "CC(=O)c1ccc(NC(=O)c2cnn3ccccc23)cc1", "values": [{"measurement": "EC50", "setting": "[5]", "value": "2.12 µM (active)"}, {"measurement": "EC50", "setting": "[6]", "value": "1.68 µM (active)"}, {"measurement": "AC50", "setting": "[7]", "value": "50.1 µM (active)"}, {"measurement": "AC50", "setting": "[8]", "value": "> 52 µM (inactive)"}, {"measurement": "IC50", "setting": "[9]", "value": "> 67.5 µM (inactive)"}, {"measurement": "EC50", "setting": "[10]", "value": "1.43 µM (active)"}, {"measurement": "AC50", "setting": "[11]", "value": "> 52 µM (inactive)"}, {"measurement": "AC50", "setting": "[12]", "value": "11.7 µM (active)"}, {"measurement": "EC50", "setting": "[13]", "value": "14.3 µM (active)"}, {"measurement": "AC50", "setting": "[14]", "value": "9.16 µM (active)"}, {"measurement": "IC50", "setting": "[15]", "value": "> 67.5 µM (inactive)"}]}
{"smiles": "CCOc1ccc(/C=C2\\SC(=S)N(CCC(=O)N(CCO)c3ccccc3)C2=O)cc1", "values": [{"measurement": "CC50", "setting": "[16]", "value": "33.5 µM (active)"}]}
{"smiles": "O=c1oc2cc(O)ccc2cc1S(=O)(=O)c1ccccc1", "values": [{"measurement": "AC50", "setting": "[17]", "value": "1.44 µM (active)"}, {"measurement": "EC50", "setting": "[18]", "value": "> 260 µM (inactive)"}]}
{"smiles": "CN1C(=O)C(=Cc2[nH]c3ccccc3c2CCNC(=S)NC2CC2)C(=O)N(C)C1=O", "values": [{"measurement": "EC50", "setting": "[4]", "value": "> 167 µM (inactive)"}]}
{"smiles": "CCCc1ccc(OCc2ccc(C(=O)N3CCSCC3)o2)cc1", "values": [{"measurement": "IC50", "setting": "[19]", "value": "0.904 µM (active)"}]}
{"smiles": "N#CC1=C(N)Oc2c(ccc3ccccc23)C1c1ccsc1", "note": "(stereo not drawn)", "values": [{"measurement": "EC50", "setting": "[20]", "value": "2.63 µM (active)"}, {"measurement": "EC50", "setting": "[21]", "value": "0.221 µM (active)"}, {"measurement": "AC50", "setting": "[22]", "value": "17.7 µM (active)"}, {"measurement": "EC50", "setting": "[23]", "value": "0.182 µM (inconclusive)"}, {"measurement": "EC50", "setting": "[24]", "value": "0.254 µM (active)"}, {"measurement": "EC50", "setting": "[25]", "value": "0.253 µM (active)"}]}
{"smiles": "O=C(CSc1ncccc1C(=O)O)c1ccc2ccccc2c1", "values": [{"measurement": "IC50", "setting": "[19]", "value": "0.391 µM (active)"}]}
{"smiles": "CCOc1ccccc1-c1nc(-c2cc3ccccc3nc2OC)no1", "values": [{"measurement": "IC50", "setting": "[26]", "value": "> 50 µM (not active)"}]}
